Experiments:
THP-1 cells = experiment: Inhibition of foam cell formation in THP-1 cells (Oil Red O staining); type: cell-based; settings: THP-1 cells + PMA, 50 μg/ml acLDL + 500 U/ml IFN-γ; two doses of 100 nM compound; versus vehicle samples; light microscopy
Procedure: THP-1 cells in suspension were maintained in RPMI 1640 media (PenStep, 10% FBS, 37° C., 5% CO2). The cells plated at 10^5-10^6 cells/well in 24-well plate (500 uL/well). Cell count was 34 at 1:20 and 1:30 dilution. Then, 100 nM PMA was added to allow for differentiation into macrophages, and the mixture was incubated for 24 hours. To the mixture, was added 500 U/mL IFN-gamma, and the resulting mixture was incubated for another 24 hours.
For vehicles, 50 μg/ml of acLDL and 500 U/ml IFN-γ were added to the cells. For those samples that received treatment by Compound A1, a first dose of 100 nM of Compound A1 was added 15 minutes before the addition of acLDL, and a second dose of 100 nM Compound A1 was added after 24 hours. Then, media was removed, and cells washed three times with PBS and fixed in 10% formalin for 10 minutes. Cells were rinsed in PBS (1 minute) and then with 60% isopropanol (15 seconds). Samples were stained with Oil Red O in darkness for 1 minute at 37° C. Samples were rinsed again in 60% isopropanol, then three times with PBS. Wells were kept hydrated until imaging, and samples were visualized using light microscopy.

[1] = system: PDE4 enzyme from U937 human monocytic cells; experiment: Inhibition of PDE4 (enzyme assay, [3H]-cAMP); type: biochemical; settings: purified PDE4 enzyme from U937 human monocytic cells; 1 μM cAMP, 45 min at 30° C.
Procedure: Phosphodiesterase 4 enzyme was purified from U937 human monocytic cells by gel filtration chromatography, and phosphodiesterase reactions were carried out as previously described. See, e.g., Muller et al., Bioorg. Med. Chem. Lett., 1998, 8(19): 2669-2674. Briefly, reactions were carried out in 96-well deep-well plates in 50 mM Tris HCl pH 7.5, 5 mM MgCl2, 1 μM cyclic adenosine monophosphate (cAMP), plus 10 nM [^3H]-cAMP for 45 min at 30° C. The reactions were terminated by boiling, treated with 1 mg/ml snake venom, and separated using AG-1X8 ion exchange resin (BioRad). Reactions consumed less than 15% of available substrate.

Structure (SMILES)	formation of foam cells (THP-1 cells)	IC50 [1] [nM]
CCOc1cc([C@H](CS(C)(=O)=O)N2C(=O)c3cccc(NC(C)=O)c3C2=O)ccc1OC [Compound A2, (R)—N-(2-(1-(3-ethoxy-4-methoxyphenyl)-2-(methylsulfonyl)ethyl)-1,3-dioxoisoindolin-4-yl)acetamide]	effective in preventing or inhibiting the formation of foam cells	–
CCOc1cc([C@@H](CS(C)(=O)=O)N2C(=O)c3cccc(NC(C)=O)c3C2=O)ccc1OC [Compound A1, (S)—N-(2-(1-(3-ethoxy-4-methoxyphenyl)-2-(methylsulfonyl)ethyl)-1,3-dioxoisoindolin-4-yl)acetamide]	significantly reduced formation of foam cells	~74

Reference: patent publication US20170087129A1, “COMPOSITIONS AND METHODS FOR THE TREATMENT OF ATHEROSCLEROTIC CARDIOVASCULAR DISEASES WITH PDE4 MODULATORS” (Celgene Corporation, priority 2014, published 2017)
